Reference: patent EP0398621A2, “Immunoassay of elastase-1” (SHIONOGI SEIYAKU KABUSHIKI KAISHA trading under the name of …, priority 1989, dated 1990)

Tests used:
[1] = system: ¹²⁵I-labelled E1; test: Gel filtration: binding of serum inhibitor to ¹²⁵I-labelled E1 in human serum; settings: 30 minutes at 37°C, Ultrogel AcA 44, ¹²⁵I-labelled E1 treated with the inhibitor
Method: To human serum was added ¹²⁵I-labelled E1, which was incubated for 30 minutes at 37°C. This was then subjected to gel filtration [Ultrogel AcA 44 (made by IBF Biotechnichs), ⌀ 1.5 x 55cm, developing solution: 0.1 M phosphate buffer (pH 7.1)]. The eluate was collected in 1-ml portions and the radioactivity in each fraction was measured.
When the human serum to which ¹²⁵I-labelled E1 not treated with Boc-TACK had been added was subjected to gel filtration, the ¹²⁵I-labelled E1 was all eluted in the fraction of its complex containing α₁-antitrypsin and α₂-macroglobulin (Fig. 1-a).

[2] = system: ¹²⁵I-labelled E1; test: Radioimmunoassay: effect of α₁-antitrypsin or α₂-macroglobulin on the binding rate of anti-E1 serum with ¹²⁵I-labelled E1; set-up: species or system human
Method: (§1) As for measuring buffer solution, 0.01 M phosphate buffer (pH 7.4) containing 0.1 mM Boc-TACK, 0.9% sodium chloride, 0.05% sodium azide and 0.2% bovine serum albumin was used unless otherwise mentioned. One hundred µl of standard E1 solution (0.5 - 50ng/ml) or sample serum was taken into a polystyrene tube. To this were added 100 µl each of ¹²⁵I-labelled E1 solution and anti-E1 serum, which was then mixed and incubated for 3 hours at 37°C. Next, 500 µl of the preparation of the second antibody was added, which was mixed and incubated for 30 minutes at 37°C. The incubated product was centrifuged (3000 rpm, 5 minutes), after which the supernatant was removed by suction and the radioactivity of the precipitate was measured.
Radioimmunoassay was performed using α₁-antitrypsin or α₂-macroglobulin solution in place of the standard E1 solution, whereby the effect of these on the binding rate was examined. As for measuring buffer solution, one mentioned in above-mentioned (7) was used in one method (A method), and one not containing Boc-TACK was used in another method (B method), and one containing PMSF in place of Boc-TACK was used in third method (C method) (Fig. 2).

[3] = system: E1; test: Radioimmunoassay standard curves of Boc-TACK-treated E1 and untreated E1; type: binding, human; settings: standard curve of Boc-TACK-treated E1 compared with untreated E1
Method: as §1
To evaluate the effect of Boc-TACK on the immunological reaction of E1, standard curves were drawn of Boc-TACK-treated E1 and untreated E1, and then comparison was made between the two.

[4] = system: elastase-1; settings: prior art statement; cited from earlier work

SMILES | elution of ¹²⁵I-labelled E1 in free fraction or complex fraction [1] | binding rate with increases in serum inhibitor ([2]; α₁-antitrypsin or α₂-macroglobulin solution in place of standard E1, inhibitor in measuring buffer solution) | binding rate with α₂-macroglobulin in a high concentration ([2]; α₂-macroglobulin in a high concentration, 0.1 mM Boc-TACK in measuring buffer solution) | effect on the immunological reaction of E1 [3] | capability of inhibiting the binding of α₁-antitrypsin and α₂-macroglobulin to elastase-1 [4]
CC(NC(=O)[C@H](C)NC(=O)[C@H](C)NC(=O)OC(C)(C)C)C(=O)CCl (some centres unmarked) [Boc-TACK, Nα-[N-(tert-butoxycarbonyl)alanyl]-N-(3-chloro-1-methyl-2-oxopropyl)alanineamide] | none of it was found in the complex fraction | little change was observed in the binding rate | only a slight decrease | did not affect the immunological reaction of E1 in any way | –
O=S(=O)(F)Cc1ccccc1 [PMSF, phenylmethanesulfonyl fluoride] | – | – | – | – | weak capability
